B1: miR-148b mimic: miR-148b mimic oligonucleotide; in a particular embodiment has SEQ ID NO: 1, the human precursor miR-148b sequence (nucleic acid)
chain: CAAGCACGAUUAGCAUUUGAGGUGAAGUUCUGUUAUACACUCAGGCUGUGGCUCUCUGAAAGUCAGUGCAUCACAGAACUUUGUCUCGAAAGCUUUCUA
modifications: listed as RNA, chemistry not given here

How the values were obtained:
skin wounds = assay: Mouse model of skin wound healing (full-thickness excisional wounds); type: in vivo; settings: for vessel density (CD31 positive vessels) / wound perfusion (laser Doppler): topical 1 μg/wound; for wound closure / expression of targets TGFB2 and SMAD2 in wound: topical 1 μg/wound every second day; for wound closure: 7 days; for wound perfusion (laser Doppler): 5 days post wounds
Protocol: All experiments involving mice were performed in accordance with the guidance and the operation of Animals (Scientific Procedures) Act 1986 and prior approval of the UK Home Office and the University of Edinburgh ethic committee. Skin wound healing protocol has been performed as described before^54-56. CD-1 female mice (7-9-week-old) (n=8 per group) were randomly assigned a treatment group and anaesthetized with isofluorane. Two full-thickness excisional wounds were made to the shaved dorsal skin. Full-thickness excisional wounds were made by picking up a fold of skin and using a sterile, disposable 5-mm biopsy punch (Kai Industries), resulting in generation of one wound on each side of the midline. Control oligonucleotides (scramble sequence), miR-148b mimic, Cy3-labeled miR-148b mimic or anti-miR-148b or SMAD2 siRNA (1 μg/wound) were delivered topically by pipette into the wound cavity (10 μl in a vehicle of 30% Pluronic F-127 gel [is liquid at 4° C. but solidifies at body temperature]; Sigma Aldrich). Mimics were initially delivered after 3 days, whereas anti-miR and siRNA were delivered immediately after wounding. The treatment was performed every second day for 7 days. Wounds were photographed using an Olympus camera on days 0, 2, 4, 6, and 7 after wounding. Wound areas were calculated as previously described^54, 55. To this aim, two perpendicular diameters of the wound were measured by using a Vernier caliper and wound area was calculated using a standard formula for the area of an ellipse (semi-major diameter X semi-minor diameter X Pi). The superficial blood flow of the wounds was sequentially analysed by colour laser Doppler (Colour laser Doppler, Moor, UK), and the ratio of blood flow between the mimic or anti-miR or siRNA treated and the control treated wounds was calculated. Wound size and Doppler analysis was performed in blinded fashion.
Wounds were harvested, prepared, and analysed essentially as previously described^54-56. At days 5 or 7 post-wounding, wounds were harvested and fixed in 10% buffered formalin (16 h at 4° C., Sigma) for embedding in paraffin. Sectioning was done through the wound beyond the midpoint and wound centres as identified by staining with Haematoxylin and Eosin (Sigma). Sections were deparaffinised, rehydrated and stained with rat anti-mouse polyclonal CD31 (Abcam, ab28364, 1:50), α-SMA (Sigma, A2547, 1:100) rabbit anti-mouse FSP-1 (Abcam, ab41532, 1:50), and SLUG (Abcam, […], 1:200); all antibodies overnight at 4° C.
Zeiss LSM 780 Confocal Microscope (Zeiss). Vascular density in wounds was counted after staining for CD31 and α-SMA. Ten fields per section/animal (n=8 animal; 400× magnification) were randomly examined and averaged to analyse the number of CD31-positive blood vessels in the wound edges. Images collection was performed manually. Image analysis was performed using Image J software as previously reported in^54. Vascular density is expressed per square millimetre. EndMT of ECs was assessed by FSP-1 and SLUG staining combined with CD31 staining. CD31-FSP-1 and CD31-SLUG double positive vessels are expressed as percentage of positive vessels. For analysis of fibrosis: the slides of the staining were examined and photomicrographed in a blinded fashion using a light microscope (Axioscope 2; Zeiss). Six images per slide were captured at 400× magnification for both histological staining. The colour deconvolution ImageJ software was used to evaluate the percentage of red staining which indicate the presence of collagen fibres in the tissue. The morphometric analysis corresponding to the red colours was measured as the percentage of total pixels in each image, using the Threshold (Image J software).

HUVECs [1] = assay: ECIS migration assay; type: cell-based, human; settings: transfected 48 hrs (mimic 25 nM, anti-miR 75 mM)
Protocol: Confluent HUVECs were transfected with controls or miR-148b mimic or anti-miR-148b and, plated on the ECIS chip array (8W1E or 8W10E). The migration speed was calculated in μm/h, capacitance of the plasma membrane is Cm (μF/cm^2) as reported in Giaever, I, and Keese, C R (1991)^29.

HUVECs [2] = assay: Matrigel assay (tube formation); type: cell-based, human; settings: transfected 48 hrs (mimic 25 nM, anti-miR 75 mM)
Protocol: (§1) Lipofectamine RNAiMAX (Thermo Fisher Scientific) was used to transfect HUVECs with miR-148b mimic, anti-miR-148b and mimic or anti-miR control (25 nM and […], respectively final concentration) or with siRNA targeting SMAD2 (20 nM final concentration), according to the manufacturer's instructions. jetPEI-HUVECs (Polyplus) was used to transfect HUVECs with DNA plasmids. The following functional assays were performed: BrdU incorporation assay using Cell Proliferation colorimetric assay (Roche); Matrigel assay with HUVECs was performed as previously described using BD Matrigel Basement Membrane Matrix (BD Biosciences)^53.

HUVECs [3] = assay: BrdU incorporation assay (EC proliferation); type: cell-based, human; settings: transfected 48 hrs (mimic 25 nM, anti-miR 75 mM)
Protocol: as §1

Molecule	collagen deposition (PicroSirius Red) (skin wounds; day 7 after wounding)	CD31-FSP-1 or CD31-SLUG double-positive vessels in wound edge (skin wounds; delivered immediately after wounding and every two days, day 7)	skin vessels that demonstrated mesenchymal transition (EndMT) (skin wounds; following delivery to the wounds)	vessel density (CD31 positive vessels) (skin wounds)	wound closure (skin wounds)	expression of targets TGFB2 and SMAD2 in wound (skin wounds; day 7 after wounding)	wound perfusion (laser Doppler) (skin wounds)	total number of FSP-1 positive cells in wounds (skin wounds; vs control oligonucleotide-treated wounds, day 7)	EC migration (migration speed) (HUVECs [1])	tube formation / tubulogenesis in Matrigel assay (total tubules length) (HUVECs [2])	proliferation of HUVECs (BrdU incorporation) (HUVECs [3])	miR-148b expression in wound (skin wounds; topical, starting 3 days after wounding, day 7)
anti-miR-148b: miR-148b inhibitor oligonucleotide; suitable inhibitor: hsa-miR-148b-3p miRCURY LNA inhibitor, CAAAGTTCTGTGATGCACTG (SEQ ID NO: 6) (commercial miRCURY LNA inhibitor, LNA positions not given here)	did not detect any increase	comprised of CD31-FSP-1 or CD31-SLUG double-positive vessels	around 20%	without effecting	markedly attenuated	increased	without effecting	increase	did not cause a change	did not cause a change	decreased	
B1				significant increase	accelerated	decreasing	significant increase		significantly elevated	significantly elevated	significantly increased	increased

— patent US20220193111A1, “Method of Treatment” (The University Court of the University of Edinburgh, priority 2018, published 2022)
